One assay addresses HIS-TGFβR1 T204D (Homo sapiens (Human), UniProt P36897, T204D). Kind of assay: HTRF probe displacement assay, HIS-TGFβR1 T204D. Type of assay: binding. Particulars: 1 nM HIS-TGFβR1 T204D, 1 hour at room temperature, read-out: TGFBR1T204D IC50. The protocol:
(§1) Compounds were dissolved at 10 mM in dimethylsulfoxide (DMSO) and evaluated at eleven concentrations. IC50 values were derived by non-linear regression analysis.

Another assay concerns the target HIS-TGFβR2 WT (Homo sapiens (Human), UniProt P37173). Kind of assay: HTRF probe displacement assay, HIS-TGFβR2 WT. The settings on record: 1 nM HIS-TGFβR2 WT, 1 hour at room temperature, read-out: TGFBR2WT IC50. Type of assay: binding. As for the experimental part: as §1
A general note: In TR-FRET formats the signal depends on donor and acceptor labels being close together.

IC50 data for 36 compounds are collected here from patent US9981944B2, “GDF-8 inhibitors” (Rigel Pharmaceuticals, Inc., priority 2015, dated 2018).

Sequence of HIS-TGFβR1 T204D (P36897 34-503 T204D): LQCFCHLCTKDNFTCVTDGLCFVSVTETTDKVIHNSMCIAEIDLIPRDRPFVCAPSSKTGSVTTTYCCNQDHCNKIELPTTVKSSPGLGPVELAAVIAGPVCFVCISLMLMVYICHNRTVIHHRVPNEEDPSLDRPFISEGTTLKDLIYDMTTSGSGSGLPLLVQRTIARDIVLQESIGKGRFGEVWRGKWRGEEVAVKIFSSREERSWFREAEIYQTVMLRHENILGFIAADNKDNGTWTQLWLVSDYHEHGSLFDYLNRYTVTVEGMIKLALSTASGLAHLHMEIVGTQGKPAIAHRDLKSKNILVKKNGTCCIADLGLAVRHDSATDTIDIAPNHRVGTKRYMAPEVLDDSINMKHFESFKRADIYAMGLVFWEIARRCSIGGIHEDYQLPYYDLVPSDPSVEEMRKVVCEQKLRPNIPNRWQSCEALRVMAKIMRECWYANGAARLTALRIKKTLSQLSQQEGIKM
Sequence of HIS-TGFβR2 WT (P37173 23-567): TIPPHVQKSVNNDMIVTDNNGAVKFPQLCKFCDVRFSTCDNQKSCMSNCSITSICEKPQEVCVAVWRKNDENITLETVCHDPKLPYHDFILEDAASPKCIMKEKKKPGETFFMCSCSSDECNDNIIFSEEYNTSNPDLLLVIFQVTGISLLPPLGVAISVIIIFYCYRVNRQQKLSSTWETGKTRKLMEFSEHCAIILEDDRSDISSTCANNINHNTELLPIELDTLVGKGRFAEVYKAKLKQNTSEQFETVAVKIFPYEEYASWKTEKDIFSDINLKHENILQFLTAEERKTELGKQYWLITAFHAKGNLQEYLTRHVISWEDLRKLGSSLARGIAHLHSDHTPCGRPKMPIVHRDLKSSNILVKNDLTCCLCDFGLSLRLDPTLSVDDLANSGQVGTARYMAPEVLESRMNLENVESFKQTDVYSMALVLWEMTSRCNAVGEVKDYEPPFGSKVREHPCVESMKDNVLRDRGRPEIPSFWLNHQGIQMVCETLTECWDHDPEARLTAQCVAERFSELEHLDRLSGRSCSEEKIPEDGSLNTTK

On to `Cc1cccc(-c2ncccc2-c2ccc3ncc(C(N)=O)n3n2)n1` [Compound 58, 6-(6′-methyl-[2,2′-bipyridin]-3-yl)imidazo[1,2-b]pyridazine-3-carboxamide], for which the half-inhibitory concentration (IC50) on HIS-TGFβR1 T204D was 19 nM; at HIS-TGFβR2 WT, over 15000 nM.

As for `Nc1ncnc2ccc(-c3cccnc3-c3cccc(C(F)F)n3)cc12` [Compound 109, 6-(6′-(difluoromethyl)-[2,2′-bipyridin]-3-yl)quinazolin-4-amine], the values for the IC50 on HIS-TGFβR1 T204D and at HIS-TGFβR2 WT were 2 nM and over 15000 nM, respectively.

In the case of `N#Cc1cnc2ccc(-c3cccnc3-c3ccc(F)cn3)cn12` [Compound 20, 6-(5′-fluoro-[2,2′-bipyridin]-3-yl)imidazo[1,2-a]pyridine-3-carbonitrile], the results for the IC50 at HIS-TGFβR1 T204D and at HIS-TGFβR2 WT were 103 nM and over 15000 nM, respectively.

On to `Cc1cc(C)nc(-c2ncccc2-c2ccc3ncc(C(N)=O)n3c2)c1` [Compound 42, 6-(4′,6′-dimethyl-[2,2′-bipyridin]-3-yl)imidazo[1,2-a]pyridine-3-carboxamide], for which the IC50 at HIS-TGFβR1 T204D is 21 nM; at HIS-TGFβR2 WT, over 15000 nM.

Take `NC(=O)c1cnc2ccc(-c3cccnc3-c3ccc(F)cn3)nn12` [Compound 54, 6-(5′-fluoro-[2,2′-bipyridin]-3-yl)imidazo[1,2-b]pyridazine-3-carboxamide]: the IC50 on HIS-TGFβR1 T204D was 254 nM; at HIS-TGFβR2 WT, over 15000 nM.

In the case of `CC(C)c1cccc(-c2ncccc2-c2ccc3ncc(C#N)n3c2)n1` [Compound 31, 6-(6′-isopropyl-[2,2′-bipyridin]-3-yl)imidazo[1,2-a]pyridine-3-carbonitrile], the IC50 on HIS-TGFβR1 T204D is 307 nM; on HIS-TGFβR2 WT, over 15000 nM.

Regarding `N#Cc1cnc2ccc(-c3cccnc3-c3cc(F)ccn3)cn12` [Compound 16, 6-(4′-fluoro-[2,2′-bipyridin]-3-yl)imidazo[1,2-a]pyridine-3-carbonitrile], the figures for the IC50 at HIS-TGFβR1 T204D and on HIS-TGFβR2 WT were 207 nM and over 15000 nM, respectively.

With `CC(=O)Nc1cnc(-c2cccc(C)n2)c(-c2ccc3ncc(C#N)n3c2)c1` [Compound 96, N-(3-(3-cyanoimidazo[1,2-a]pyridin-6-yl)-6′-methyl-[2,2′-bipyridin]-5-yl)acetamide], the IC50 on HIS-TGFβR1 T204D was 43 nM; at HIS-TGFβR2 WT, over 15000 nM.

As to `Cc1nc(-c2ncccc2-c2ccc3[nH]ncc3c2)ccc1F` [Compound 117, 5-(5′-fluoro-6′-methyl-[2,2′-bipyridin]-3-yl)-1H-indazole], the figures for the IC50 at HIS-TGFβR1 T204D and at HIS-TGFβR2 WT were 2 nM and over 15000 nM, respectively.

On to `Cc1ccc(-c2ccc3ncc(C(N)=O)n3c2)c(-c2cccc(C(F)F)n2)n1` [Compound 88, 6-(6′-(difluoromethyl)-6-methyl-[2,2′-bipyridin]-3-yl)imidazo[1,2-a]pyridine-3-carboxamide], for which the IC50 on HIS-TGFβR1 T204D is 13 nM; at HIS-TGFβR2 WT, over 15000 nM.

Regarding `N#Cc1cnc2ccc(-c3cccnc3-c3ccc(F)c(C(F)F)n3)cn12` [Compound 23, 6-(6′-(difluoromethyl)-5′-fluoro-[2,2′-bipyridin]-3-yl)imidazo[1,2-a]pyridine-3-carbonitrile], the results for the IC50 at HIS-TGFβR1 T204D and on HIS-TGFβR2 WT were 130 nM and over 15000 nM, respectively.

On to `CCc1cccc(-c2ncccc2-c2ccc3ncnc(N)c3c2)n1` [Compound 107, 6-(6′-ethyl-[2,2′-bipyridin]-3-yl)quinazolin-4-amine], for which the IC50 at HIS-TGFβR1 T204D was 9 nM; at HIS-TGFβR2 WT it was over 15000 nM.

On to `N#Cc1cnc2ccc(-c3cccnc3-c3cccc(F)n3)cn12` [Compound 36, 6-(6′-fluoro-[2,2′-bipyridin]-3-yl)imidazo[1,2-a]pyridine-3-carbonitrile], for which the IC50 on HIS-TGFβR1 T204D is 120 nM; on HIS-TGFβR2 WT, over 15000 nM.

`FC(F)c1cccc(-c2ncccc2-c2ccc3[nH]nc(C(F)F)c3c2)n1` [Compound 118, 3-(difluoromethyl)-5-(6′-(difluoromethyl)-[2,2′-bipyridin]-3-yl)-1H-indazole]: the IC50 was 427 nM on HIS-TGFβR1 T204D and over 15000 nM at HIS-TGFβR2 WT.

As for `Cc1cccc(-c2ncccc2-c2ccc3ncc(C(=O)NCC(F)(F)F)n3c2)n1` [Compound 69, 6-(6′-methyl-[2,2′-bipyridin]-3-yl)-N-(2,2,2-trifluoroethyl)imidazo[1,2-a]pyridine-3-carboxamide], the IC50 on HIS-TGFβR1 T204D is 7 nM; at HIS-TGFβR2 WT it was over 15000 nM.

On to `N#Cc1cnc2ccc(-c3cccnc3-c3cccc(C(F)F)n3)nn12` [Compound 49, 6-(6′-(difluoromethyl)-[2,2′-bipyridin]-3-yl)imidazo[1,2-b]pyridazine-3-carbonitrile], for which the values for the IC50 at HIS-TGFβR1 T204D and at HIS-TGFβR2 WT were 61 nM and over 15000 nM, respectively.

For the compound `CC(=O)Nc1ccc(-c2ccc3ncc(C(N)=O)n3c2)c(-c2cccc(C)n2)n1` [Compound 95, 6-(6-acetamido-6′-methyl-[2,2′-bipyridin]-3-yl)imidazo[1,2-a]pyridine-3-carboxamide], the IC50 was 353 nM on HIS-TGFβR1 T204D and over 15000 nM at HIS-TGFβR2 WT.

For the compound `Cc1cccc(-c2ncccc2-c2ccc3ncc(C#N)n3n2)n1` [Compound 57, 6-(6′-methyl-[2, 2′-bipyridin]-3-yl) imidazo[1,2-b]pyridazine-3-carbonitrile], the IC50 at HIS-TGFβR1 T204D was 35 nM; on HIS-TGFβR2 WT, over 15000 nM.

Regarding `COC(=O)c1ccc(-c2ncccc2-c2ccc3ncc(C#N)n3c2)nc1` [Compound 25, methyl 3′-(3-cyanoimidazo[1,2-a]pyridin-6-yl)-[2,2′-bipyridine]-5-carboxylate], the IC50 on HIS-TGFβR1 T204D is 4480 nM; on HIS-TGFβR2 WT, over 15000 nM.

Regarding `Cc1nc(-c2ncccc2-c2ccc3nccnc3c2)ccc1F` [Compound 112, 6-(5′-fluoro-6′-methyl-[2,2′-bipyridin]-3-yl)quinoxaline], the values for the IC50 at HIS-TGFβR1 T204D and at HIS-TGFβR2 WT were 12 nM and over 15000 nM, respectively.

For `Cc1cccc(-c2nc(C)ccc2-c2ccc3ncc(C(N)=O)n3c2)n1` [Compound 87], the IC50 was 15 nM on HIS-TGFβR1 T204D and over 15000 nM on HIS-TGFβR2 WT.

As for `CC(=O)Nc1cccc(-c2ncccc2-c2ccc3ncc(C#N)n3c2)n1` [Compound 45, N-(3′-(3-cyanoimidazo[1,2-a]pyridin-6-yl)-[2,2′-bipyridin]-6-yl)acetamide], the results for the IC50 on HIS-TGFβR1 T204D and at HIS-TGFβR2 WT were 907 nM and over 15000 nM, respectively.

Take `CC(=O)Nc1cn2cc(-c3cccnc3-c3ccc(F)c(C)n3)ccc2n1` [Compound 77, N-(6-(5′-fluoro-6′-methyl-[2,2′-bipyridin]-3-yl)imidazo[1,2-a]pyridin-2-yl)acetamide]: the IC50 at HIS-TGFβR1 T204D is 4 nM; at HIS-TGFβR2 WT, over 15000 nM.

Consider `Cc1cccc(-c2ncccc2-c2ccc3ncc(C(=O)O)n3n2)n1` [Compound 73, 6-(6′-methyl-[2,2′-bipyridin]-3-yl)imidazo[1,2-b]pyridazine-3-carboxylic acid], for which the IC50 was 26 nM at HIS-TGFβR1 T204D and over 15000 nM at HIS-TGFβR2 WT.

In the case of `CC(C)c1cccc(-c2ncccc2-c2ccc3ncnc(N)c3c2)n1` [Compound 108, 6-(6′-isopropyl-[2,2′-bipyridin]-3-yl)quinazolin-4-amine], the results for the IC50 at HIS-TGFβR1 T204D and at HIS-TGFβR2 WT were 172 nM and over 15000 nM, respectively.

On to `Cc1cccc(-c2nccc(C(F)F)c2-c2ccc3ncc(C#N)n3c2)n1` [Compound 93, 6-(4-(difluoromethyl)-6′-methyl-[2,2′-bipyridin]-3-yl)imidazo[1,2-a]pyridine-3-carbonitrile], for which the figures for the IC50 at HIS-TGFβR1 T204D and on HIS-TGFβR2 WT were 15000 nM and over 15000 nM, respectively.

As to `COC(=O)c1ccnc(-c2cccc(C)n2)c1-c1ccc2ncc(C#N)n2c1` [Compound 91, methyl 3-(3-cyanoimidazo[1,2-a]pyridin-6-yl)-6′-methyl-[2,2′-bipyridine]-4-carboxylate], the IC50 at HIS-TGFβR1 T204D was 652 nM; at HIS-TGFβR2 WT, over 15000 nM.

In the case of `N#Cc1cnc2ccc(-c3cccnc3-c3cccc(C(F)F)n3)cn12` [Compound 28, 6-(6′-(difluoromethyl)-[2,2′-bipyridin]-3-yl)imidazo[1,2-a]pyridine-3-carbonitrile], the IC50 on HIS-TGFβR1 T204D was 9 nM; at HIS-TGFβR2 WT it was over 15000 nM.

Regarding `CC(C)c1cccc(-c2ncccc2-c2ccc3ncc(C(N)=O)n3c2)n1` [Compound 32, 6-(6′-isopropyl-[2,2′-bipyridin]-3-yl)imidazo[1,2-a]pyridine-3-carboxamide], the results for the IC50 at HIS-TGFβR1 T204D and on HIS-TGFβR2 WT were 16 nM and over 15000 nM, respectively.

Take `Fc1ccc(-c2ncccc2-c2ccc3nccn3c2)nc1C(F)F` [Compound 48, 6-(6′-(difluoromethyl)-5′-fluoro-[2,2′-bipyridin]-3-yl)imidazo[1,2-a]pyridine]: the IC50 is 26 nM on HIS-TGFβR1 T204D and over 15000 nM on HIS-TGFβR2 WT.

For `NC(=O)c1cnc2ccc(-c3cccnc3-c3cccc(C(F)F)n3)cn12` [Compound 29, 6-(6′-(difluoromethyl)-[2,2′-bipyridin]-3-yl)imidazo[1,2-a]pyridine-3-carboxamide], the IC50 at HIS-TGFβR1 T204D was 1 nM; at HIS-TGFβR2 WT, over 15000 nM.

On to `CC(=O)c1cccc(-c2ncccc2-c2ccc3ncc(C#N)n3c2)n1` [Compound 40, 6-(6′-acetyl-[2,2′-bipyridin]-3-yl)imidazo[1,2-a]pyridine-3-carbonitrile], for which the IC50 on HIS-TGFβR1 T204D was 821 nM; on HIS-TGFβR2 WT, over 15000 nM.

As to `N#Cc1cnc2ccc(-c3cccnc3-c3ccccn3)cn12` [Compound 13, 6-([2,2′-bipyridin]-3-yl)imidazo[1,2-a]pyridine-3-carbonitrile], the IC50 is 103 nM on HIS-TGFβR1 T204D and over 15000 nM on HIS-TGFβR2 WT.

With `Nc1ncnc2ccc(-c3cccnc3-c3cccc(C4CC4)n3)cc12` [Compound 111], the half-inhibitory concentration (IC50) on HIS-TGFβR1 T204D is 2 nM; at HIS-TGFβR2 WT it was over 15000 nM.

With `CCOC(=O)c1cnn2ccc(-c3cccnc3-c3cccc(C(F)F)n3)nc12` [Compound 134, ethyl 5-(6′-(difluoromethyl)-[2,2′-bipyridin]-3-yl)pyrazolo[1,5-a]pyrimidine-3-carboxylate], the figures for the IC50 at HIS-TGFβR1 T204D and at HIS-TGFβR2 WT were 28 nM and over 15000 nM, respectively.

Take `Cc1cccc(-c2nccc(N)c2-c2ccc3ncc(C(N)=O)n3c2)n1` [Compound 101, 6-(4-amino-6′-methyl-[2,2′-bipyridin]-3-yl)imidazo[1,2-a]pyridine-3-carboxamide]: the IC50 at HIS-TGFβR1 T204D was 5 nM; on HIS-TGFβR2 WT, over 15000 nM.

What is called IC50 is the point on the concentration scale where inhibition reaches its midpoint.
